# Source: paper PMC9848300, “Discovery of novel enasidenib analogues targeting inhibition of mutant isocitrate dehydrogenase 2 as antileukaemic agents” (Journal of Enzyme Inhibition and Medicinal Chemistry, 2023)
# Like-named read-outs stand apart in the source and are kept apart here.
# What was measured:
# Type in all cases: cell-based
# UACC-257 = assay: NCI 60 antitumor screening (single dose / five doses); conditions: Homo sapiens
# RPMI-8226 = assay: as above; conditions: Homo sapiens
# ACHN = assay: as above; conditions: Homo sapiens; for inhibition at 10 µM: read-out: Growth inhibition percentage (GI %)
# SF-539 = assay: as above; conditions: Homo sapiens
# MALME-3M = assay: as above; conditions: Homo sapiens; for inhibition at 10 µM: read-out: Growth inhibition percentage (GI %)
# CCRF-CEM = assay: as above; conditions: Homo sapiens; for inhibition at 10 µM: read-out: Growth inhibition percentage (GI %)
# K-562 = assay: as above; conditions: Homo sapiens
# HOP-62 = assay: NCI 60 antitumor screening (single dose); conditions: Homo sapiens; HOP-62 (non-small cell lung cancer), single dose 10 μM; read-out: Growth inhibition percentage (GI %)
# Outline: (§1)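 Read-out is percent growth (G%) of treated cancer cells relative to untreated, converted to percent inhibition as 100 − G%. Each compound was applied once at 10 μM across 60 human tumour lines under the NCI protocol.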
# M14 = assay: NCI 60 antitumor screening (single dose); conditions: Homo sapiens; M14 (melanoma), single dose 10 μM; read-out: Growth inhibition percentage (GI %)
# Outline: (§2)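 Under the NCI Drug Evaluation Branch protocol, each compound is screened at one 10 μM concentration on the 60-line human tumour panel. Growth of treated cells is expressed as G%, and inhibition is reported as 100 − G%.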
# OVCAR-3 = assay: NCI 60 antitumor screening (single dose); conditions: Homo sapiens; OVCAR-3 (ovarian cancer), single dose 10 μM; read-out: Growth inhibition percentage (GI %)
# Outline: as §2
# PC-3 = assay: NCI 60 antitumor screening (single dose); conditions: Homo sapiens; PC-3 (prostate cancer), single dose 10 μM; read-out: Growth inhibition percentage (GI %)
# Outline: as §2
# CAKI-1 = assay: NCI 60 antitumor screening (single dose); conditions: Homo sapiens; CAKI-1 (renal cancer), single dose 10 μM; read-out: Growth inhibition percentage (GI %)
# Outline: as §2
# NCI-H226 = assay: NCI 60 antitumor screening (single dose); conditions: Homo sapiens; NCI-H226 (non-small cell lung cancer), single dose 10 μM; read-out: Growth inhibition percentage (GI %)
# Outline: as §2
# TK-10 = assay: NCI 60 antitumor screening (single dose); conditions: Homo sapiens; TK-10 (renal cancer), single dose 10 μM; read-out: Growth inhibition percentage (GI %)
# Outline: as §2
# HS 578T = assay: NCI 60 antitumor screening (single dose); conditions: Homo sapiens; HS 578T (breast cancer), single dose 10 μM; read-out: Growth inhibition percentage (GI %)
# Outline: as §2
# NCI-H322M = assay: NCI 60 antitumor screening (single dose); conditions: Homo sapiens; NCI-H322M (non-small cell lung cancer), single dose 10 μM; read-out: Growth inhibition percentage (GI %)
# Outline: as §2
# HCC-2998 = assay: NCI 60 antitumor screening (single dose); conditions: Homo sapiens; HCC-2998 (colon cancer), single dose 10 μM; read-out: Growth inhibition percentage (GI %)
# Outline: as §1
# OVCAR-5 = assay: NCI 60 antitumor screening (single dose); conditions: Homo sapiens; OVCAR-5 (ovarian cancer), single dose 10 μM; read-out: Growth inhibition percentage (GI %)
# Outline: as §1
# A549/ATCC = assay: NCI 60 antitumor screening (single dose); conditions: Homo sapiens; A549/ATCC (non-small cell lung cancer), single dose 10 μM; read-out: Growth inhibition percentage (GI %)
# Outline: as §2
# KM 12 = assay: NCI 60 antitumor screening (single dose); conditions: Homo sapiens, KM12; KM 12 (colon cancer), single dose 10 μM; read-out: Growth inhibition percentage (GI %)
# Outline: as §2
# MCF7 = assay: NCI 60 antitumor screening (single dose); conditions: Homo sapiens; MCF7 (breast cancer), single dose 10 μM; read-out: Growth inhibition percentage (GI %)
# Outline: as §2
# SF-268 = assay: NCI 60 antitumor screening (single dose); conditions: Homo sapiens; SF-268 (CNS cancer), single dose 10 μM; read-out: Growth inhibition percentage (GI %)
# Outline: as §1
# OVCAR-8 = assay: NCI 60 antitumor screening (single dose); conditions: Homo sapiens; OVCAR-8 (ovarian cancer), single dose 10 μM; read-out: Growth inhibition percentage (GI %)
# Outline: as §2
# NCI-H522 = assay: NCI 60 antitumor screening (single dose); conditions: Homo sapiens; NCI-H522 (non-small cell lung cancer), single dose 10 μM; read-out: Growth inhibition percentage (GI %)
# Outline: as §1
# NCI-H460 = assay: NCI 60 antitumor screening (single dose); conditions: Homo sapiens; NCI-H460 (non-small cell lung cancer), single dose 10 μM; read-out: Growth inhibition percentage (GI %)
# Outline: as §1
# U251 = assay: NCI 60 antitumor screening (single dose); conditions: Homo sapiens, U-251; U251 (CNS cancer), single dose 10 μM; read-out: Growth inhibition percentage (GI %)
# Outline: as §1
# SNB-19 = assay: NCI 60 antitumor screening (single dose); conditions: Homo sapiens; SNB-19 (CNS cancer), single dose 10 μM; read-out: Growth inhibition percentage (GI %)
# Outline: as §2
# [1] = UACC-257, read-out: Growth inhibition percentage (GI %)
# [2] = RPMI-8226, read-out: Growth inhibition percentage (GI %)
# [3] = SF-539, read-out: Growth inhibition percentage (GI %)
# [4] = K562, read-out: Growth inhibition percentage (GI %)
# [5] = UACC-257 (melanoma), single dose 10 μM, read-out: Growth inhibition percentage (GI %)
# [6] = RPMI-8226 (leukaemia), single dose 10 μM, read-out: Growth inhibition percentage (GI %)
# [7] = ACHN (renal cancer), single dose 10 μM
# [8] = SF-539 (CNS cancer), single dose 10 μM, read-out: Growth inhibition percentage (GI %)
# [9] = MALME-3M (melanoma), single dose 10 μM
# [10] = CCRF-CEM (leukaemia), single dose 10 μM
# [11] = K562, K-562 (leukaemia), single dose 10 μM, read-out: Growth inhibition percentage (GI %)
Structure (SMILES),inhibition at 10 µM (HOP-62) [%],inhibition at 10 µM (M14) [%],inhibition at 10 µM (OVCAR-3) [%],inhibition at 10 µM (PC-3) [%],inhibition at 10 µM (CAKI-1) [%],inhibition at 10 µM (NCI-H226) [%],inhibition at 10 µM (TK-10) [%],inhibition at 10 µM (HS 578T) [%],inhibition at 10 µM (NCI-H322M) [%],inhibition at 10 µM (HCC-2998) [%],inhibition at 10 µM (OVCAR-5) [%],inhibition at 10 µM (A549/ATCC) [%],inhibition at 10 µM (KM 12) [%],inhibition at 10 µM (MCF7) [%],inhibition at 10 µM (SF-268) [%],inhibition at 10 µM (OVCAR-8) [%],inhibition at 10 µM (NCI-H522) [%],inhibition at 10 µM (NCI-H460) [%],inhibition at 10 µM (U251) [%],inhibition at 10 µM (SNB-19) [%],further results
"O=[N+]([O-])c1cccc(/C=N/Nc2nc(N/N=C/c3cccc([N+](=O)[O-])c3)nc(N3CCCCC3)n2)c1 [compound 7f, 2,4-Bis[(E)-2-[(3-Nitrophenyl)methylidene]hydrazin-1-yl]-6-(piperidin-1-yl)-1,3,5-triazine]",41.5,41.2,44.4,51.4,27.6,42.6,-9.28,20.8,13.8,5.6,-13,39.3,35.2,38.7,24.3,48.9,58.1,31.3,28.6,11.5,inhibition at 10 µM (UACC-257; [1]): 4.25%; inhibition at 10 µM (RPMI-8226; [2]): 69.3%; inhibition at 10 µM (ACHN; ACHN): 37.8%; inhibition at 10 µM (SF-539; [3]): 7.37%; inhibition at 10 µM (MALME-3M; Malme-3M): 7.94%; inhibition at 10 µM (CCRF-CEM; CCRF-CEM): 65.1%; inhibition at 10 µM (K-562; [4]): 67.6%
"CN(C)c1ccc(/C=N/Nc2nc(N/N=C/c3ccc(N(C)C)cc3)nc(N3CCCCC3)n2)cc1 [compound 7g, 4-[(1e)-(2-{4-[(E)-2-{[4-(dimethylamino)phenyl]methylidene}chydrazin-1-yl]-6-(piperidin-1-yl)-1,3,5-triazin-2-yl}hydrazin-1-ylidene)methyl]-N,N-dimethylaniline]",18.2,27.2,34.4,15.2,10.1,-1.93,-18.4,-6.05,-0.12,-3.1,3.87,21.6,6.98,68.9,-5.33,43.4,3.84,29.1,50,13.9,"inhibition at 10 µM (UACC-257; [5]): -4.45%; GI50 (UACC-257; UACC-257, five doses (0.01–100 μM), read-out: GI50): 1830 nM; inhibition at 10 µM (RPMI-8226; [6]): 67.4%; GI50 (RPMI-8226; RPMI-8226, five doses (0.01–100 μM), read-out: GI50): 1920 nM; inhibition at 10 µM (ACHN; [7]): 67.6%; GI50 (ACHN; ACHN, five doses (0.01–100 μM), read-out: GI50): 2680 nM; inhibition at 10 µM (SF-539; [8]): 112%; GI50 (SF-539; SF-539, five doses (0.01–100 μM), read-out: GI50): 1990 nM; inhibition at 10 µM (MALME-3M; [9]): 167%; GI50 (MALME-3M; MALME-3M, five doses (0.01–100 μM), read-out: GI50): 1860 nM; inhibition at 10 µM (CCRF-CEM; [10]): 74.2%; GI50 (CCRF-CEM; CCRF-CEM, five doses (0.01–100 μM), read-out: GI50): 1210 nM; inhibition at 10 µM (K-562; [11]): 96.9%; GI50 (K-562; K562, K-562, five doses (0.01–100 μM), read-out: GI50): 890 nM"
"Clc1cccc(/C=N/Nc2nc(N/N=C/c3cccc(Cl)c3Cl)nc(N3CCCCC3)n2)c1Cl [compound 7h, 2,4-Bis[(E)-2-[(2,3-Dichlorophenyl)methylidene]hydrazin-1-yl]-6-(piperidin-1-yl)-1,3,5-triazine]",1.81,31.2,91.8,29.9,15.9,2.51,8.78,15,10,2.64,6.05,44.4,32.8,28.8,13.6,27.1,23.4,66.2,47.1,4.59,inhibition at 10 µM (UACC-257; [5]): 10.2%; inhibition at 10 µM (RPMI-8226; [6]): 6.61%; inhibition at 10 µM (ACHN; [7]): 16.3%; inhibition at 10 µM (SF-539; [8]): 15.7%; inhibition at 10 µM (MALME-3M; [9]): 7.49%; inhibition at 10 µM (CCRF-CEM; [10]): 28.7%; inhibition at 10 µM (K-562; [11]): 21.9%
"O=[N+]([O-])c1cc(/C=N/Nc2nc(N/N=C/c3ccc(Cl)c([N+](=O)[O-])c3)nc(N3CCCCC3)n2)ccc1Cl [compound 7i, 2,4-Bis[(E)-2-[(4-Chloro-3-nitrophenyl)methylidene]hydrazin-1-yl]-6-(piperidin-1-yl)-1,3,5-triazine]",56.3,7.7,107,46.6,27.6,38.6,6.2,46.2,28.8,32.6,-8.09,-11.2,94.5,99.1,35.1,69,48.1,1.33,81.5,27.4,inhibition at 10 µM (UACC-257; [1]): 56.9%; inhibition at 10 µM (RPMI-8226; [2]): 81.7%; inhibition at 10 µM (ACHN; ACHN): 64.8%; inhibition at 10 µM (SF-539; [3]): 63.7%; inhibition at 10 µM (MALME-3M; Malme-3M): -1.47%; inhibition at 10 µM (CCRF-CEM; CCRF-CEM): 38.7%; inhibition at 10 µM (K-562; [4]): 68.3%
"Oc1ccc(/C=N/Nc2nc(N/N=C/c3ccc(O)c(O)c3)nc(N3CCCCC3)n2)cc1O [compound 7j, 4-[(1e)-(2-{4-[(E)-2-[(3,4-Dihydroxyphenyl)methylidene]hydrazin-1-yl]-6-(piperidin-1-yl)-1,3,5-triazin-2-yl}hydrazin-1-ylidene)methyl]benzene-1,2-diol]",-10.5,-3.18,5.01,9.42,13.4,4.47,-3.52,-6.08,-2.3,-5,-13.1,-0.07,-0.29,4.27,-2.56,1.94,6.61,0.77,9.07,13.7,inhibition at 10 µM (UACC-257; [5]): -8.89%; inhibition at 10 µM (RPMI-8226; [6]): -7.6%; inhibition at 10 µM (ACHN; [7]): 6.6%; inhibition at 10 µM (SF-539; [8]): 1.16%; inhibition at 10 µM (MALME-3M; [9]): 6.88%; inhibition at 10 µM (CCRF-CEM; [10]): 9.46%; inhibition at 10 µM (K-562; [11]): 6.41%
